Patent publication US4820821A, “Novel pyridazinone-imines and their physiologically tolerated addition salts with acids, their preparation and therapeutic agents containing these compounds” (BASF Aktiengesellschaft, priority 1981, dated 1989)
Like-named read-outs stand apart in the source and are kept apart here.

Tests used:
[1] = tested on: reserpine-induced hypothermia; test: Antidepressive action: reserpine antagonism, inhibition of reserpine-induced hypothermia of the mouse; format: in vivo, male Swiss mice; conditions: for ED50: Mus musculus, dose based on the base, read-out: ED 50% (dose which inhibits the reserpine-induced hypothermia of the mouse by 50%); for R.A. (relative activity), reserpine antagonism: amezinium = 1.00, oral
Protocol: Antidepressants effect dose-dependent inhibition of this hypotherma. The test substances are administered orally 60 minutes before the administration of reserpine.
The dose which effects 50% inhibition of the reserpine-induced hypothermia is determined, as the ED 50%, from the linear regression between log dose (mg/kg) and relative reduction in hypothermia (Δ%).

[2] = tested on: blood pressure; test: Effect on the blood pressure: hypertensive action, pithed rat; format: in vivo, male Sprague-Dawley rats; conditions: for ED20: Rattus norvegicus, dose based on the base, read-out: ED 20% hypertensive action (dose which increases the blood pressure of the pithed rat by 20%); for R.A. (relative activity), hypertensive action: amezinium = 1.00
Protocol: The measurement of the blood pressure in the carotid artery was carried out by means of Statham transducers. The substance was administered in the jugular vein (as an aqueous solution, 1 ml/kg) or intraperitoneally (as a tragacanth suspension, 2 ml/kg). The ED 20% is determined as the dose which increases the blood pressure by 20%.

[3] = tested on: reserpine-induced hypothermia / blood pressure; test: Quotient ED 50% antidepressive action / ED 20% hypertensive action; format: in vivo, mouse / rat;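 as to Q Increase: larger quotient means more selective hypertensive action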
Source text: This is evident from the fact that the quotient defined above differs wtih respect to the comparative compounds. […] This arises, inter alia, from the fact that the hypertensive ED 20 constitutes the denominator of the quotient. It is possible that the unforeseeable selective direction of action is attributable to the special substitution,in accordance with the invention, at the 4-imino group.

[4] = Table 1, oral administration 60 min before reserpine
[5] = ip, Table 1, i.p. administration
[6] = iv, Table 1, i.v. administration

Compound | ED50 [1, 4] | R.A. (relative activity), reserpine antagonism ([1]; Table 1) | ED20 [2, 5] | R.A. (relative activity), hypertensive action ([2]; Table 1, i.p. administration) | Q (quotient ED 50% antidepressive action/ED 20% hypertensive action) ([3]; hypertensive test i.p.) | ED50 ([1]; Table 2, oral administration) | R.A. (relative activity), reserpine antagonism ([1]; Table 2) | ED20 ([2]; Table 2, route not given) | R.A. (relative activity), hypertensive action ([2]; Table 2) | Q Increase ([3]; Table 2, route of hypertensive test not given) | ED20 [2, 6] | R.A. (relative activity), hypertensive action ([2]; Table 1, i.v. administration) | Q (quotient ED 50% antidepressive action/ED 20% hypertensive action) ([3]; hypertensive test i.v.)
COc1cc(=NC(=O)c2ccccc2Cl)cnn1-c1ccccc1 [Example 64] | 1.27 mg/kg | 0.58 | > 10 mg/kg | < 0.04 | < 0.13 | – | – | – | – | – | – | – | –
CCOc1cc(=NC(=O)c2ccccc2Cl)cnn1-c1ccccc1 [Example 65] | – | – | – | – | – | > 31.6 mg/kg | < 0.02 | 0.53 mg/kg | 0.09 | > 59.62 | – | – | –
COc1cc(=NC(=O)c2ccc(Cl)cc2)cnn1-c1ccccc1 [Example 66] | 1.8 mg/kg | 0.41 | > 10 mg/kg | < 0.04 | < 0.18 | – | – | – | – | – | – | – | –
COc1cc(=NC(=O)c2ccc(Cl)cc2Cl)cnn1-c1ccccc1 [Example 68] | 0.95 mg/kg | 0.77 | > 21.5 mg/kg | < 0.02 | < 0.04 | – | – | – | – | – | – | – | –
CCOC(=O)N=c1cnn(-c2ccccc2)c(OC)c1 [Example 69] | 4.86 mg/kg | 0.15 | – | – | – | – | – | – | – | – | 2.15 mg/kg | 0.02 | 2.26
CCCCOC(=O)N=c1cnn(-c2ccccc2)c(OC)c1 [Example 71] | 0.76 mg/kg | 0.96 | – | – | – | – | – | – | – | – | 0.464 mg/kg | 0.11 | 1.64
C=CCOC(=O)N=c1cnn(-c2ccccc2)c(OC)c1 [Example 72] | 1.47 mg/kg | 0.50 | – | – | – | – | – | – | – | – | 0.464 mg/kg | 0.11 | 3.17
CCSC(=O)N=c1cnn(-c2ccccc2)c(OC)c1 [Example 73] | 1.23 mg/kg | 0.60 | > 10 mg/kg | < 0.04 | < 0.12 | – | – | – | – | – | – | – | –
COc1cc(=NC(=O)NCc2ccccc2)cnn1-c1ccccc1 [Example 74] | 8.45 mg/kg | 0.09 | – | – | – | – | – | – | – | – | 4.64 mg/kg | 0.01 | 1.82
COc1cc(=NC(=O)c2cccc(C(F)(F)F)c2)cnn1-c1ccccc1 [Example 77] | 3.4 mg/kg | 0.22 | 3.16 mg/kg | 0.12 | 1.08 | – | – | – | – | – | – | – | –
COc1cc(=NC(=O)c2ccc(C)cc2)cnn1-c1ccccc1 [Example 78] | 0.73 mg/kg | 1.00 | 10 mg/kg | 0.04 | 0.07 | – | – | – | – | – | – | – | –
COc1cc(=NC(=O)c2ccc(F)cc2)cnn1-c1ccccc1 [Example 79] | 1.14 mg/kg | 0.64 | 10 mg/kg | 0.04 | 0.11 | – | – | – | – | – | – | – | –
COc1cc(=NC(=O)c2ccc(Cl)c(Cl)c2)cnn1-c1ccccc1 [Example 80] | 1.5 mg/kg | 0.49 | > 10 mg/kg | < 0.04 | < 0.15 | – | – | – | – | – | – | – | –
CCNC(=O)N=c1ccn(-c2ccccc2)nc1 [Example 84, 1,4-dihydro-4-(ethylcarbamyl)-imino-1-phenylpyridazine] | 0.37 mg/kg | 1.98 | – | – | – | – | – | – | – | – | 0.464 mg/kg | 0.11 | 0.80
